Values quoted from earlier work in US20080045551A1, “PHARMACEUTICAL COMBINATION COMPRISING AN ADENOSINE A1 ANTAGONIST AND A RADIOCONTRAST MEDIA” (priority 2006, published 2008).

System: radiocontrast media induced nephropathy
Conditions: intensive care patients; Greiner 2005

For Cn1c(=O)c2[nH]cnc2n(C)c1=O [theophylline], the “prophylaxis of radiocontrast media induced nephropathy (CIN)” value is given as “prophylactic properties”.
